The target in one assay is T1, recombinant BRD4 BD1 (Homo sapiens, UniProt O60885).
T1 construct: for recombinant BRD4 BD1 and BRD4 BD2 proteins
Nature of the assay: Competitive fluorescence-polarization (FP) binding assay, BRD4 BD1. On IC50 (nM) BRD4 BD1: probe 1.5 nM. The following applies: for Ki: read-out: Binding affinities (FP) BRD4BD1 Ki. Here is the method:
(§1) Fluorescence Polarization (FP) competitive binding studies were carried out using a FAM labeled fluorescent probe (ZBA248 or BRD-1F) to determine binding affinities of representative Compounds of the Disclosure for recombinant BRD4 BD1 and BRD4 BD2 proteins. For example, equilibrium dissociation constants (Kd) values of ZBA248 to these […] proteins were determined from protein saturation experiments by monitoring the total fluorescence polarization of mixtures composed with the fluorescent probe at a fixed concentration and proteins with increasing concentrations up to full saturation. Serial dilutions of testing protein were mixed with ZBA248 to a final volume of 200 μl in the assay buffer. […] Plates were incubated at room temperature for 30 minutes with gentle shaking to assure equilibrium. […] Kd values of ZBA248 were calculated by fitting the sigmoidal dose-dependent FP increases as a function of protein concentrations using Graphpad Prism 6.0 software (Graphpad Software, San Diego, Calif.).
(§2) The IC50 and Ki values of representative Compounds of the Disclosure were determined in a competitive binding experiment as described above. Mixtures of 10 μl of the tested compounds in assay buffer with 40% Ethylene Glycol and 190 μl of preincubated protein/probe complex solution in the assay buffer (100 mM potassium phosphate, pH 6.5, 0.01% Triton X-100) were added into assay plates which were incubated at room temperature for 30 minutes with gentle shaking. Final concentrations of proteins were 10 and 6 nM in assays for BD1 and BD2 of BRD4, respectively. […] FP values were measured as described above. IC50 values were determined by nonlinear regression fitting of the competition curves.

The next assay deals with T2, recombinant BRD4 BD2 (Homo sapiens, UniProt O60885).
T2 construct: for recombinant BRD4 BD1 and BRD4 BD2 proteins
Nature of the assay: Competitive fluorescence-polarization (FP) binding assay, BRD4 BD2. On IC50 (nM) BRD4 BD2: probe 1.5 nM. The following applies: for Ki: read-out: Binding affinities (FP) BRD4BD2 Ki. As to the method: as §1, §2

The test system of a further assay is MDA-MB-436. Nature of the assay: Cell growth inhibition, MDA-MB-436 breast cancer cells (WST-8). It counts as cell-based. The following applies: Homo sapiens, 96 h; MDA-MB-436 cells, 4 days; read-out: Cellular data MDA-MB-436 IC50. As to the method: All the breast cancer cell lines were obtained from the ATCC. Cell viability was determined using the WST-8 (2-(2-methoxy-4-nitrophenyl)-3-(4-nitrophenyl)-5-(2,4-disulfophenyl)-2H-tetrazolium, monosodium salt) based Cell Counting-8 Kit (Dojindo Molecular Technologies, Inc., Rockville, Md.) according to the manufacture's instruction. […] The absorbance was measured at 450 nm using a SPECTRAmax PLUS plate reader (Molecular Devices, Sunnyvale, Calif.). The IC50 was calculated using the GraphPad Prism 5 software.

Setting [1] is: FP competitive binding, BRD4 BD1, read-out: Binding affinities (FP) BRD4BD1 IC50.
Setting [2] is: FP competitive binding, BRD4 BD1.
The mark [3] stands for this setting: FP competitive binding, BRD4 BD2, read-out: Binding affinities (FP) BRD4BD2 IC50.
Setting [4] is: FP competitive binding, BRD4 BD2.
Where [5] appears, read: competitive FP assay, protein 10 nM, probe […], read-out: IC50 (nM) BRD4 BD1.
Where [6] appears, read: competitive FP assay, protein 6 nM, probe […], read-out: IC50 (nM) BRD4 BD2.

Read-outs that look alike come from different tables or passages of the source.

The IC50 is the concentration that inhibits the measured activity by half. Usually Ki stands for a dissociation constant, usually derived from enzyme kinetics or from competition with a known ligand. As to `COc1nc2c(cc1-c1c(C)noc1C)[nH]c1nc(C)nc(N(C)c3cc(C(C)(C)C)nn3C)c12` [compound 315, N-(3-(tert-butyl)-1-methyl-1H-pyrazol-5-yl)-7-(3,5-dimethylisoxazol-4-yl)-6-methoxy-N,2-dimethyl-9H-pyrido[2′,3′:4,5]pyrrolo[2,3-d] pyrimidin-4-amine], the IC50 at recombinant BRD4 BD1 (setting [1]) worked out at 28 nM; at recombinant BRD4 BD2 (setting [3]), 16 nM; in the assay on MDA-MB-436 it was 164 nM. Besides, the Ki on recombinant BRD4 BD1 (setting [2]) was 7.8 nM; on recombinant BRD4 BD2 (setting [4]) it was 4.7 nM.
The corresponding values for `COc1nc2c(cc1-c1c(C)noc1C)[nH]c1nc(C)nc(Nc3cc(C)nn3C(C)(C)C)c12` [Cpd. No. 310, N-(1-(tert-butyl)-3-methyl-1H-pyrazol-5-yl)-7-(3,5-dimethylisoxazol-4-yl)-6-methoxy-2-methyl-9H-pyrido[2′,3′:4,5]pyrrolo[2,3-d] pyrimidin-4-amine] are 378 nM, 313 nM, 1280 nM, 143 nM and 113 nM.
`COc1nc2c(cc1-c1c(C)noc1C)[nH]c1nc(C)nc(Nc3cc(C(C)(C)C)nn3C)c12` [compound 314, N-(3-(tert-butyl)-1-methyl-1H-pyrazol-5-yl)-7-(3,5-dimethylisoxazol-4-yl)-6-methoxy-2-methyl-9H-pyrido[2′,3′:4,5]pyrrolo [2,3-d]pyrimidin-4-amine]: the values for the IC50 at recombinant BRD4 BD1 (setting [1]), at recombinant BRD4 BD2 (setting [3]) and in the assay with MDA-MB-436 were 457 nM, 986 nM and more than 2000 nM, respectively. Moreover, the Ki on recombinant BRD4 BD1 (setting [2]) was 146 nM; at recombinant BRD4 BD2 (setting [4]), 209 nM.
With `COc1cc2c(cc1-c1c(C)noc1C)[nH]c1nc(C)nc(Sc3ccccc3C(C)C)c12` [Cpd. No. 25, 4-(4-((2-isopropylphenyl)thio)-6-methoxy-2-methyl-9H-pyrimido[4,5-b]indol-7-yl)-3,5-dimethylisoxazole], the IC50 at recombinant BRD4 BD1 (setting [5]) and at recombinant BRD4 BD2 (setting [6]) was more than 1000 nM in each case.
Consider `COc1cc2c(cc1-c1c(C)noc1C)[nH]c1nc(C)nc(Nc3cc(C4CC4)nn3C3CNC3)c12` [Cpd. No. 163, N-(1-(Azetidin-3-yl)-3-cyclopropyl-1H-pyrazol-5-yl)-7-(3,5-dimethylisoxazol-4-yl)-6-methoxy-2-methyl-9H-pyrimido[4,5-b]indol-4-amine], for which, at recombinant BRD4 BD1 (setting [5]), the IC50 was 8.8 nM.
Take `COCCn1nc(C2CC2)cc1Nc1nc(C)nc2[nH]c3cc(-c4c(C)noc4C)c(OC)cc3c12` [Cpd. No. 266, N-(3-Cyclopropyl-1-(2-methoxyethyl)-1H-pyrazol-5-yl)-7-(3,5-dimethylisoxazol-4-yl)-6-methoxy-2-methyl-9H-pyrimido[4,5-b]indol-4-amine]: the figures for the IC50 on recombinant BRD4 BD1 (setting [5]) and at recombinant BRD4 BD2 (setting [6]) were 10.3 nM and 3.1 nM, respectively.
For `COc1cc2c(cc1-c1c(C)noc1C)[nH]c1ccnc(Nc3c4c(nn3C(C)C)CCC4)c12` [Cpd. No. 286, 7-(3,5-dimethylisoxazol-4-yl)-N-(2-isopropyl-2,4,5,6-tetrahydrocyclopenta[c]pyrazol-3-yl)-8-methoxy-5H-pyrido[4,3-b]indol-1-amine], the IC50 at recombinant BRD4 BD1 (setting [1]) worked out at 28.7 nM; at recombinant BRD4 BD2 (setting [3]), 18.5 nM. In addition, the Ki on recombinant BRD4 BD1 (setting [2]) is 5.1 nM; at recombinant BRD4 BD2 (setting [4]), 4.6 nM.
Regarding `COc1cc2c(cc1-c1c(C)noc1C)[nH]c1nc(C)nc(Nc3ccnc(C)c3)c12` [Cpd. No. 248, 7-(3,5-dimethylisoxazol-4-yl)-6-methoxy-2-methyl-N-(2-methylpyridin-4-yl)-9H-pyrimido[4,5-b]indol-4-amine], the IC50 came out at 70 nM at recombinant BRD4 BD1 (setting [5]) and 79 nM on recombinant BRD4 BD2 (setting [6]).
The corresponding values for `COCc1nc(Nc2cc(C3CC3)nn2C)c2c(n1)[nH]c1cc(-c3c(C)noc3C)c(OC)cc12` [Cpd. No. 207, N-(3-cyclopropyl-1-methyl-1H-pyrazol-5-yl)-7-(3,5-dimethylisoxazol-4-yl)-6-methoxy-2-(methoxymethyl)-9H-pyrimido[4,5-b]indol-4-amine] are 2.9 nM and 1.3 nM.
On to `COc1cc2c3c(N(C)c4cc(C5CC5)nn4C4CN(C)C4)nc(C)nc3n(C)c2cc1-c1c(C)noc1C` [compound 258, N-(3-Cyclopropyl-1-(1-methylazetidin-3-yl)-1H-pyrazol-5-yl)-7-(3,5-dimethyl-isoxazol-4-yl)-6-methoxy-N,2,9-trimethyl-9H-pyrimido[4,5-b]indol-4-amine], for which the results for the IC50 at recombinant BRD4 BD1 (setting [5]) and on recombinant BRD4 BD2 (setting [6]) were 8.1 nM and 2.8 nM, respectively.
In the case of `CCn1nc(C2CC2)cc1Nc1nccc2[nH]c3cc(-c4c(C)noc4C)c(OC)cc3c12` [Cpd. No. 285, N-(3-cyclopropyl-1-ethyl-1H-pyrazol-5-yl)-7-(3,5-dimethylisoxazol-4-yl)-8-methoxy-5H-pyrido[4,3-b]indol-1-amine], the IC50 on recombinant BRD4 BD1 (setting [1]) came out at 18.9 nM; on recombinant BRD4 BD2 (setting [3]) it was 9.8 nM. The values for the Ki on recombinant BRD4 BD1 (setting [2]) and on recombinant BRD4 BD2 (setting [4]) were 3.7 nM and 2.1 nM, respectively.
Take `COc1cc2c(cc1-c1c(C)noc1C)[nH]c1nc(N)nc(Nc3cc(C4CC4)nn3C)c12` [Cpd. No. 206, N4-(3-cyclopropyl-1-methyl-1H-pyrazol-5-yl)-7-(3,5-dimethylisoxazol-4-yl)-6-methoxy-9H-pyrimido[4,5-b]indole-2,4-diamine]: the IC50 on recombinant BRD4 BD1 (setting [5]) turned out to be 5.6 nM.
In the case of `COc1cc2c(cc1-c1c(C)noc1C)[nH]c1nc(C)nc(Oc3cccc(Cl)c3)c12` [Cpd. No. 95, 4-(4-(3-chlorophenoxy)-6-methoxy-2-methyl-9H-pyrimido[4,5-b]indol-7-yl)-3,5-dimethylisoxazole], the IC50 at recombinant BRD4 BD1 (setting [5]) and at recombinant BRD4 BD2 (setting [6]) was more than 1000 nM throughout.
For the molecule `COc1cc2c(cc1-c1c(C)noc1C)[nH]c1nc(C)nc(Sc3cccc(C(C)(C)C)c3)c12` [Cpd. No. 27, 4-(4-((3-(tert-butyl)phenyl)thio)-6-methoxy-2-methyl-9H-pyrimido[4,5-b]indol-7-yl)-3,5-dimethylisoxazole], the IC50 on recombinant BRD4 BD1 (setting [5]) and on recombinant BRD4 BD2 (setting [6]) was more than 1000 nM each time.
With `COc1cc2c(cc1-c1c(C)noc1C)[nH]c1nc(C)nc(Sc3c[nH]c4ccccc34)c12` [Cpd. No. 26, 4-(4-((1H-indol-3-yl)thio)-6-methoxy-2-methyl-9H-pyrimido[4,5-b]indol-7-yl)-3,5-dimethylisoxazole], the IC50 on recombinant BRD4 BD1 (setting [5]) and at recombinant BRD4 BD2 (setting [6]) was more than 1000 nM throughout.
For the molecule `COc1cc2c(nc1-c1c(C)noc1C)[nH]c1nc(C)nc(Nc3cc(C4CC4)nn3C)c12` [Cpd. No. 304], the IC50 at recombinant BRD4 BD1 (setting [1]) came to 63 nM; at recombinant BRD4 BD2 (setting [3]), 318 nM. Further, the Ki at recombinant BRD4 BD1 (setting [2]) is 15 nM; on recombinant BRD4 BD2 (setting [4]), 94 nM.
With `COc1cc2c(cc1-c1c(C)noc1C)[nH]c1nc(C)nc(Oc3cccnc3)c12` [Cpd. No. 96, 4-(6-methoxy-2-methyl-4-(pyridin-3-yloxy)-9H-pyrimido[4,5-b]indol-7-yl)-3,5-dimethylisoxazole], the IC50 on recombinant BRD4 BD1 (setting [5]) came out at 864 nM; on recombinant BRD4 BD2 (setting [6]) it was 379 nM.
For `COc1cc2c(cc1-c1c(C)noc1C)[nH]c1nc(C)nc(Nc3cc(C4CC4)nn3CCN(C)C)c12` [Cpd. No. 160, N-(3-Cyclopropyl-1-(2-(dimethylamino)ethyl)-1H-pyrazol-5-yl)-7-(3,5-dimethylisoxazol-4-yl)-6-methoxy-2-methyl-9H-pyrimido[4,5-b]indol-4-amine], at recombinant BRD4 BD1 (setting [5]), the IC50 is 14.1 nM.

The values above are taken from patent US9580430B2, “9H-pyrimido[4,5-B]indoles and related analogs as BET bromodomain inhibitors” (THE REGENTS OF THE UNIVERSITY OF MICHIGAN, priority 2014, dated 2017).
